# Measured values as given in ChEMBL document CHEMBL4507285, “Data for DCP probe MRL-SYKi” (2021).
# What was measured:
# [1] = system: Tyrosine-protein kinase ABL1 (Homo sapiens), P00519 [F317L]; conditions: Compound concentration 100.0 nM
# [2] = target: Tyrosine-protein kinase ABL1 (Homo sapiens) (UniProt P00519); conditions: Compound concentration 100.0 nM
# [3] = target: Activin receptor type-1 (Homo sapiens) (UniProt Q04771); conditions: Compound concentration 100.0 nM
# [4] = target: Aurora kinase C (Homo sapiens) (UniProt Q9UQB9); conditions: Compound concentration 100.0 nM
# [5] = target: Calcium/calmodulin-dependent protein kinase type II subunit beta (Homo sapiens) (UniProt Q13554); conditions: Compound concentration 100.0 nM
# [6] = target: Calcium/calmodulin-dependent protein kinase type II subunit gamma (Homo sapiens) (UniProt Q13555); conditions: Compound concentration 100.0 nM
# [7] = target: Peripheral plasma membrane protein CASK (Homo sapiens) (UniProt O14936); conditions: Compound concentration 100.0 nM
# [8] = target: Cyclin-dependent kinase 2 (Homo sapiens) (UniProt P24941); conditions: Compound concentration 100.0 nM
# [9] = target: Cyclin-dependent kinase-like 2 (Homo sapiens) (UniProt Q92772); conditions: Compound concentration 100.0 nM
# [10] = target: Cyclin-dependent kinase-like 5 (Homo sapiens) (UniProt O76039); conditions: Compound concentration 100.0 nM
# [11] = target: Macrophage colony-stimulating factor 1 receptor (Homo sapiens) (UniProt P07333); conditions: Compound concentration 100.0 nM
# [12] = system: Epidermal growth factor receptor (Homo sapiens), P00533 [L858R]; conditions: Compound concentration 100.0 nM
# [13] = system: Epidermal growth factor receptor (Homo sapiens), P00533 [UNDEFINED MUTATION]; conditions: Compound concentration 100.0 nM
# [14] = system: Epidermal growth factor receptor (Homo sapiens), P00533 [T790M]; conditions: Compound concentration 100.0 nM
# [15] = target: Ephrin type-B receptor 3 (Homo sapiens) (UniProt P54753); conditions: Compound concentration 100.0 nM
# [16] = target: Ephrin type-B receptor 6 (Homo sapiens) (UniProt O15197); conditions: Compound concentration 100.0 nM
# [17] = target: Mitogen-activated protein kinase 15 (Homo sapiens) (UniProt Q8TD08); conditions: Compound concentration 100.0 nM
# [18] = target: Tyrosine-protein kinase Fes/Fps (Homo sapiens) (UniProt P07332); conditions: Compound concentration 100.0 nM
# [19] = target: Vascular endothelial growth factor receptor 3 (Homo sapiens) (UniProt P35916); conditions: Compound concentration 100.0 nM
# [20] = target: Cyclin-G-associated kinase (Homo sapiens) (UniProt O14976); conditions: Compound concentration 100.0 nM
# [21] = target: Beta-adrenergic receptor kinase 1 (Homo sapiens) (UniProt P25098); conditions: Compound concentration 100.0 nM
# [22] = target: Tyrosine-protein kinase ITK/TSK (Homo sapiens) (UniProt Q08881); conditions: Compound concentration 100.0 nM
# [23] = target: Serine/threonine-protein kinase MAK (Homo sapiens) (UniProt P20794); conditions: Compound concentration 100.0 nM
# [24] = target: Mitogen-activated protein kinase kinase kinase 4 (Homo sapiens) (UniProt Q9Y6R4); conditions: Compound concentration 100.0 nM
# [25] = target: Mitogen-activated protein kinase kinase kinase kinase 5 (Homo sapiens) (UniProt Q9Y4K4); conditions: Compound concentration 100.0 nM
# [26] = system: Hepatocyte growth factor receptor (Homo sapiens), P08581 [M1250T]; conditions: Compound concentration 100.0 nM
# [27] = target: Serine/threonine-protein kinase MRCK beta (Homo sapiens) (UniProt Q9Y5S2); conditions: Compound concentration 100.0 nM
# [28] = target: Serine/threonine-protein kinase 3 (Homo sapiens) (UniProt Q13188); conditions: Compound concentration 100.0 nM
# [29] = target: Serine/threonine-protein kinase Nek4 (Homo sapiens) (UniProt P51957); conditions: Compound concentration 100.0 nM
# [30] = target: Cyclin-dependent kinase 16 (Homo sapiens) (UniProt Q00536); conditions: Compound concentration 100.0 nM
# [31] = target: Cyclin-dependent kinase 15 (Homo sapiens) (UniProt Q96Q40); conditions: Compound concentration 100.0 nM
# [32] = target: Phosphorylase b kinase regulatory subunit alpha, liver isoform (Homo sapiens) (UniProt P46019); conditions: Compound concentration 100.0 nM
# [33] = target: Serine/threonine-protein kinase pim-3 (Homo sapiens) (UniProt Q86V86); conditions: Compound concentration 100.0 nM
# [34] = target: Phosphatidylinositol 4-phosphate 5-kinase type-1 gamma (Homo sapiens) (UniProt O60331); conditions: Compound concentration 100.0 nM
# [35] = target: Serine/threonine-protein kinase PLK4 (Homo sapiens) (UniProt O00444); conditions: Compound concentration 100.0 nM
# [36] = target: Proto-oncogene tyrosine-protein kinase receptor Ret (Homo sapiens) (UniProt P07949); conditions: Compound concentration 100.0 nM
# [37] = target: Receptor-interacting serine/threonine-protein kinase 4 (Homo sapiens) (UniProt P57078); conditions: Compound concentration 100.0 nM
# [38] = target: Dual serine/threonine and tyrosine protein kinase (Homo sapiens) (UniProt Q6XUX3); conditions: Compound concentration 100.0 nM
# [39] = target: Serine/threonine-protein kinase Sgk3 (Homo sapiens) (UniProt Q96BR1); conditions: Compound concentration 100.0 nM
# [40] = target: NUAK family SNF1-like kinase 2 (Homo sapiens) (UniProt Q9H093); conditions: Compound concentration 100.0 nM
# [41] = target: SNF-related serine/threonine-protein kinase (Homo sapiens) (UniProt Q9NRH2); conditions: Compound concentration 100.0 nM
# [42] = target: Serine/threonine-protein kinase tousled-like 2 (Homo sapiens) (UniProt Q86UE8); conditions: Compound concentration 100.0 nM
# [43] = target: Serine/threonine-protein kinase ULK3 (Homo sapiens) (UniProt Q6PHR2); conditions: Compound concentration 100.0 nM
# [44] = target: 5-hydroxytryptamine receptor 5A (Homo sapiens) (UniProt P47898); conditions: Compound concentration 10.0 uM
# [45] = target: D(2) dopamine receptor (Homo sapiens) (UniProt P14416); conditions: Compound concentration 10.0 uM
# Chain of D(2) dopamine receptor (Homo sapiens) (P14416 whole entry): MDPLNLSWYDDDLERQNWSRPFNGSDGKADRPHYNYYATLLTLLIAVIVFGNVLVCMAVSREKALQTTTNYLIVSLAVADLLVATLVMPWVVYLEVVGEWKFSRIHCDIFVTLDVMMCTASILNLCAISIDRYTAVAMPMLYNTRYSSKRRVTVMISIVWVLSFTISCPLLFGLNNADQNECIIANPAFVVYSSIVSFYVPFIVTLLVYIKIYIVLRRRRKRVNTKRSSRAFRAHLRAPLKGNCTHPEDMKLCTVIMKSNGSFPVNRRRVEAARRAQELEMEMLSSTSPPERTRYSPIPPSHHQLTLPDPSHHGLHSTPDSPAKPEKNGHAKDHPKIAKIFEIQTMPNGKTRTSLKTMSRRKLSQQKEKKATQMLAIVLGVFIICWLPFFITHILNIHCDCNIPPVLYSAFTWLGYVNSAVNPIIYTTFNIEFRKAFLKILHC
# Chain of Mitogen-activated protein kinase kinase kinase 4 (Homo sapiens) (Q9Y6R4 whole entry): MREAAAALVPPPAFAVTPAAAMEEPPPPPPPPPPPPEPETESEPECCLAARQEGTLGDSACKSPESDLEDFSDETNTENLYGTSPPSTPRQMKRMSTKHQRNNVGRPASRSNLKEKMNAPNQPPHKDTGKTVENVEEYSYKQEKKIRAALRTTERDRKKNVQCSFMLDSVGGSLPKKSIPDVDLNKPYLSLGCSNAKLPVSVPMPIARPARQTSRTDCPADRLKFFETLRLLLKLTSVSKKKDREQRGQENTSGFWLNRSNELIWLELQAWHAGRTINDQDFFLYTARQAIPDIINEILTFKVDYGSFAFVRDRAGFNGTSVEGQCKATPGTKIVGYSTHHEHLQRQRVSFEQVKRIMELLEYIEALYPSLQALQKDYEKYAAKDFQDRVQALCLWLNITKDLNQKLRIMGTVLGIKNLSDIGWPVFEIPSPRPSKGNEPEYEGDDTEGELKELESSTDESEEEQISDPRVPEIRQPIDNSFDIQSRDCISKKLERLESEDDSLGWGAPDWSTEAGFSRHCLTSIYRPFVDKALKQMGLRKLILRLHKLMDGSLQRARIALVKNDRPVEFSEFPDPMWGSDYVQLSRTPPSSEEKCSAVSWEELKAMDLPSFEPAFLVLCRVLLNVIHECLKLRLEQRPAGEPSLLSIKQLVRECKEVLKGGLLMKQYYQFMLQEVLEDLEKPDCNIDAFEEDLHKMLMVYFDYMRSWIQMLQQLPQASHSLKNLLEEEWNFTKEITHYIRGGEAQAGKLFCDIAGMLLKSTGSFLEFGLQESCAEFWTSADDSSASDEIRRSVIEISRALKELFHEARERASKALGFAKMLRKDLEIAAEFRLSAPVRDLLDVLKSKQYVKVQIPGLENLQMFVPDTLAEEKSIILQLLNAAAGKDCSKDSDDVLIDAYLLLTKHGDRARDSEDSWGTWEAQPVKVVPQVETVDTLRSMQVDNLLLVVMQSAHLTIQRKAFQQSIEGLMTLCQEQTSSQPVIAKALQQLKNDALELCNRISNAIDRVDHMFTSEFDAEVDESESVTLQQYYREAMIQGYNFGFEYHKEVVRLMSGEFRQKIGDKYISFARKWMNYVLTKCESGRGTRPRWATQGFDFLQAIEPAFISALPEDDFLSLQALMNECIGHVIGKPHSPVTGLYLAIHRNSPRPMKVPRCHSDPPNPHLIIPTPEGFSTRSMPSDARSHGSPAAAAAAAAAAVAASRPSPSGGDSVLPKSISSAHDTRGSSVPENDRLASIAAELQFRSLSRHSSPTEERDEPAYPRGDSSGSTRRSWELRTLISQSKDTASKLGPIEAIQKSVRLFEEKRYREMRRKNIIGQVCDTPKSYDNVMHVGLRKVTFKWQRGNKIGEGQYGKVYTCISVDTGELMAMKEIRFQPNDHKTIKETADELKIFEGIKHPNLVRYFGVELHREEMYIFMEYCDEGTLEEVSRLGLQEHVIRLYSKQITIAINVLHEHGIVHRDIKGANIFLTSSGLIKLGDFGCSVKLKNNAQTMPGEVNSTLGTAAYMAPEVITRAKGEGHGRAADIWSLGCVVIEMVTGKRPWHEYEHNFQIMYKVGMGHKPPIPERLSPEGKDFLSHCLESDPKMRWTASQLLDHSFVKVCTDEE
# Chain of Ephrin type-B receptor 6 (Homo sapiens) (O15197 whole entry): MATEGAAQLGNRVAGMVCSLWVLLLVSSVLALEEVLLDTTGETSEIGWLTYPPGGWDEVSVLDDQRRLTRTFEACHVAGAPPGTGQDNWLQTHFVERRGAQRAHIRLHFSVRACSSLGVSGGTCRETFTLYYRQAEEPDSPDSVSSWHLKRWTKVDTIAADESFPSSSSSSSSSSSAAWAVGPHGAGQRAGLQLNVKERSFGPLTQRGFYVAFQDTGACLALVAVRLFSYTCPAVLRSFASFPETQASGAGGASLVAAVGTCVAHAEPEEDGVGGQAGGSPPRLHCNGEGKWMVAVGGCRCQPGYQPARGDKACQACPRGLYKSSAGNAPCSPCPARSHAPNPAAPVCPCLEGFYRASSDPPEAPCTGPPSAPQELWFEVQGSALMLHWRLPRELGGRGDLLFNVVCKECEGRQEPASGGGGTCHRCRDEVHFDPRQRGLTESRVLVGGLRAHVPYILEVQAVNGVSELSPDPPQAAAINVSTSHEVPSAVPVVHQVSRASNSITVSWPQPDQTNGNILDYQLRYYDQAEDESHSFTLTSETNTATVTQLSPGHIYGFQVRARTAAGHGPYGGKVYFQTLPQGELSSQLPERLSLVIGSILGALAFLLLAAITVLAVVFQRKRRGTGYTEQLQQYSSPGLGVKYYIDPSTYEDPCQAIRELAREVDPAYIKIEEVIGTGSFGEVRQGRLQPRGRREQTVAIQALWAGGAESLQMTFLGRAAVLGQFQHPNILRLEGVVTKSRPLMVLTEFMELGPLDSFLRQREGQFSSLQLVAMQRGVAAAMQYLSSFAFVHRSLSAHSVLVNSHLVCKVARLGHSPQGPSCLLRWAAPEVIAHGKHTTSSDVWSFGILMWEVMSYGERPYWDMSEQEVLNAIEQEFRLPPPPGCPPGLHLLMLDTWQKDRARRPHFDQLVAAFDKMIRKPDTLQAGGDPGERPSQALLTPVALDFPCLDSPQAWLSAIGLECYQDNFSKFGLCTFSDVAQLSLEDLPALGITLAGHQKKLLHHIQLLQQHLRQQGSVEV
# Chain of NUAK family SNF1-like kinase 2 (Homo sapiens) (Q9H093 whole entry): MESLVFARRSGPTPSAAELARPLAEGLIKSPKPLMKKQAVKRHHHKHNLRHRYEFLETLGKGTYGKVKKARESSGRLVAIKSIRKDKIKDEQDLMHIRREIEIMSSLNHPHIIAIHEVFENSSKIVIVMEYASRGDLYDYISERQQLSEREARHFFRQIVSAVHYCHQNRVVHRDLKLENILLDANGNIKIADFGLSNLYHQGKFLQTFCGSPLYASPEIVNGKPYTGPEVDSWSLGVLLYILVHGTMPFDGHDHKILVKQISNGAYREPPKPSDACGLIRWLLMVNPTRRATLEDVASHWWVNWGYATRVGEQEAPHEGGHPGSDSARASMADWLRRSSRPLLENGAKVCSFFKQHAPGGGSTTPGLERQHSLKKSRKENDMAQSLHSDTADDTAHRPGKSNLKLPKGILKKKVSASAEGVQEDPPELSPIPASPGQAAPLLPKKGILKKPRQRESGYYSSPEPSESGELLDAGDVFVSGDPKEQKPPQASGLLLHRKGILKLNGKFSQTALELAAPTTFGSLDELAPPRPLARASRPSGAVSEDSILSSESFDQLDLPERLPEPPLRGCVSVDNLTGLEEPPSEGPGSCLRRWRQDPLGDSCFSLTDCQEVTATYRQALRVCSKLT
# Chain of Cyclin-dependent kinase-like 2 (Homo sapiens) (Q92772 whole entry): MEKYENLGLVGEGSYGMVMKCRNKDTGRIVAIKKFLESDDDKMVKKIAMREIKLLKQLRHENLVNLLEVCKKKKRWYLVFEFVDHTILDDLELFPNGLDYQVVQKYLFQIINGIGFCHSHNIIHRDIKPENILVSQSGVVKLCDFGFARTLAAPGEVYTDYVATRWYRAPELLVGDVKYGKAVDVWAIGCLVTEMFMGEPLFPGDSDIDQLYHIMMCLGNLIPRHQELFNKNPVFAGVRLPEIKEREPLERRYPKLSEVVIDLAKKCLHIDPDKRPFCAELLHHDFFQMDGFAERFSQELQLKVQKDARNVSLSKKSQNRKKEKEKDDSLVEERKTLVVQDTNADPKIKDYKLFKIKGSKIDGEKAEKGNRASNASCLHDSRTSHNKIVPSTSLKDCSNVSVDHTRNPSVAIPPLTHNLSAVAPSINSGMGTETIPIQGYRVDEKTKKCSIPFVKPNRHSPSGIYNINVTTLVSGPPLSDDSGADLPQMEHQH
# Chain of Phosphatidylinositol 4-phosphate 5-kinase type-1 gamma (Homo sapiens) (O60331 whole entry): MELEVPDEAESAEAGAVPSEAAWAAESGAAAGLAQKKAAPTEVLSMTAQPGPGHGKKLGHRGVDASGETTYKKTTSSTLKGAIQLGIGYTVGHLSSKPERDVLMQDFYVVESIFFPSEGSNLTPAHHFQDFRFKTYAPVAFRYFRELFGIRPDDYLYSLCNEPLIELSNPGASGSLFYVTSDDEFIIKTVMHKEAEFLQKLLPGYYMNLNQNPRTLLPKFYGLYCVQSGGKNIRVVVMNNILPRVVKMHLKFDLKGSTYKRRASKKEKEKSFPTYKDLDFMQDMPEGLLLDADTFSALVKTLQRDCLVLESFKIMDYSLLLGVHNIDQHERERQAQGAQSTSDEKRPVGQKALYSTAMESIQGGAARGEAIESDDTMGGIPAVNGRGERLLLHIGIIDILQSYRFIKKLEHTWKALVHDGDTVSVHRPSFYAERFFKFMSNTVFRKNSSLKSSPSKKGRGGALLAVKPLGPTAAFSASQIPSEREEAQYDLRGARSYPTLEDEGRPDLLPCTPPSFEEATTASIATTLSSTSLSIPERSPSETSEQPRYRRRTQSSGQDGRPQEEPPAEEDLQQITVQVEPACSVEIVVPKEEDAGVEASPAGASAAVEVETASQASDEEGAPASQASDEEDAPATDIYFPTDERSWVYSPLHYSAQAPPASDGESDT
smiles,measurement,setting,value
Cc1ccc(-c2cnc([C@@]3(O)CC[C@H](C(=O)O)C(C)(C)C3)s2)cc1Nc1cccc(C(F)(F)F)n1 [MRL-SYKi-NC],residual activity,[1],84.4%
same,residual activity,[2],100%
same,residual activity,[3],100%
same,residual activity,[4],100%
same,residual activity,[5],95.3%
same,residual activity,[6],88.2%
same,residual activity,[7],100%
same,residual activity,[8],98.8%
same,residual activity,[9],94.3%
same,residual activity,[10],100%
same,residual activity,[11],84%
same,residual activity,[12],76.6%
same,residual activity,[13],92.1%
same,residual activity,[14],77.8%
same,residual activity,[15],100%
same,residual activity,[16],78.6%
same,residual activity,[17],80.3%
same,residual activity,[18],100%
same,residual activity,[19],100%
same,residual activity,[20],100%
same,residual activity,[21],100%
same,residual activity,[22],94.7%
same,residual activity,[23],93.9%
same,residual activity,[24],100%
same,residual activity,[25],95.4%
same,residual activity,[26],89%
same,residual activity,[27],91.6%
same,residual activity,[28],98.1%
same,residual activity,[29],84%
same,residual activity,[30],93%
same,residual activity,[31],89.7%
same,residual activity,[32],100%
same,residual activity,[33],89.2%
same,residual activity,[34],100%
same,residual activity,[35],56.5%
same,residual activity,[36],100%
same,residual activity,[37],92.8%
same,residual activity,[38],100%
same,residual activity,[39],100%
same,residual activity,[40],93.1%
same,residual activity,[41],90.1%
same,residual activity,[42],89.9%
same,residual activity,[43],68.1%
same,inhibition,[44],-4.56%
same,inhibition,[45],-5.34%
Cc1cc(Nc2nccc(C)n2)cc(-c2cnc([C@@]3(O)CC[C@H](C(=O)O)C(C)(C)C3)s2)c1 [MRL-SYKi],residual activity,[1],69.6%
same,residual activity,[2],63.3%
same,residual activity,[3],59.3%
same,residual activity,[4],100%
same,residual activity,[5],100%
same,residual activity,[6],95.2%
same,residual activity,[7],64.9%
same,residual activity,[8],94.7%
same,residual activity,[9],89.6%
same,residual activity,[10],96.1%
same,residual activity,[11],85.6%
same,residual activity,[12],75.3%
same,residual activity,[13],100%
same,residual activity,[14],91.6%
same,residual activity,[15],100%
same,residual activity,[16],34.7%
same,residual activity,[17],100%
same,residual activity,[18],100%
same,residual activity,[19],91.3%
same,residual activity,[20],100%
same,residual activity,[21],97.5%
same,residual activity,[22],81%
same,residual activity,[23],73.8%
same,residual activity,[24],67.4%
same,residual activity,[25],95.4%
same,residual activity,[26],93.7%
same,residual activity,[27],100%
same,residual activity,[28],100%
same,residual activity,[29],96.6%
same,residual activity,[30],100%
same,residual activity,[31],100%
same,residual activity,[32],100%
same,residual activity,[33],100%
same,residual activity,[34],92.4%
same,residual activity,[35],100%
same,residual activity,[36],98.8%
same,residual activity,[37],91.9%
same,residual activity,[38],100%
same,residual activity,[39],100%
same,residual activity,[40],100%
same,residual activity,[41],100%
same,residual activity,[42],100%
same,residual activity,[43],56.1%
same,inhibition,[44],10%
same,inhibition,[45],-3.52%
